Here are results for three compounds from US20030124159A1, “Enhancing epidermal barrier development in skin” (Unilever Home & Personal Care USA, Division of Conopco, Inc, priority 2001, published 2003).

One test addresses T1, human LXR (Homo sapiens, UniProt Q13133).
T1 construct: expressed in transfected cells; host or cells: cos-7 cells (ECACC No. 87021302)
T1 sequence (Q13133 1-447): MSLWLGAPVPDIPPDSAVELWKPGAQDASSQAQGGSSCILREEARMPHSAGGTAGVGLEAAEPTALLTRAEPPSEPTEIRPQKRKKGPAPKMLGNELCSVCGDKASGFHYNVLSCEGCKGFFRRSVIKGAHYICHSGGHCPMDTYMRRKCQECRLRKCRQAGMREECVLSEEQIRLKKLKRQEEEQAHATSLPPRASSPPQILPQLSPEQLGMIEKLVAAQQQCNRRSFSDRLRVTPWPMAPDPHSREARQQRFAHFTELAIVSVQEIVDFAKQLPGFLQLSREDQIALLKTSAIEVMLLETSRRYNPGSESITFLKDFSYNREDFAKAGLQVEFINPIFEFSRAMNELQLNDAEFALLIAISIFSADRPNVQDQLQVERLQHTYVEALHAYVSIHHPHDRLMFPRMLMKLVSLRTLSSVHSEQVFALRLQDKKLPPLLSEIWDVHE
T1 sequence (P19793 1-462 partner): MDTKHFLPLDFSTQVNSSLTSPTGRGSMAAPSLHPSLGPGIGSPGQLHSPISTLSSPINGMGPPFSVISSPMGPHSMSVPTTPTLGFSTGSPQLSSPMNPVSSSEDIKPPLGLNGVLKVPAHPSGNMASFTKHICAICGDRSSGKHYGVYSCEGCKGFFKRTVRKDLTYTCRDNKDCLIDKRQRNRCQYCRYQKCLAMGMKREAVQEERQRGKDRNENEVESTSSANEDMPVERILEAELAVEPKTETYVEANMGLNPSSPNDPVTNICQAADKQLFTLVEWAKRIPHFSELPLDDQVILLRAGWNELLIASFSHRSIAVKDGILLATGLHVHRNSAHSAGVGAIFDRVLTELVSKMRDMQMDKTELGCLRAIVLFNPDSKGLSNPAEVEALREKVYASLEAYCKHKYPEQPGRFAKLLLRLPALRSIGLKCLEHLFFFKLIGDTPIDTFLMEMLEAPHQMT
Kind of test: Reporter gene assay for activation of LXRα in transfected cos-7 cells. Type of test: cell-based. Here is the method: The activation of LXRα has been determined by a reporter gene assay based on that described by Kliewer et al (Nature 358 771-774 1992). Wherein cos-7 cells (ECACC No. 87021302) were seeded in 24-well plates at a density of 5×10^4 cells/well. Cells were grown overnight at 37° C./5% CO2 in DMEM containing 10% FCS, 2mM L-glutamine, […] penicillin and 100 µg/ml streptomycin.
A commerically available vector-pNFκB-Luc (Clontech) was used as the basic reporter plasmid as it contained the firefly luciferase gene downstream of the thymidine kinase promoter element. The NFκB consensus sequence was exised using restriction enzymes Mlu I and Bgl II and replaced with 3 direct repeats of the DNA response element sequence for the LXR nuclear receptor.
The response element was taken from Willy, P. et al (1995)(from a promoter region of the mouse mammary tumour virus), and repeated three times and encorporated restriction enzyme sites for Mlu I and Bgl II at either end to orientate the fragment during cloning (FIG. 5). This long oligonucleotide was synthesised, and an annealing primer designed to allow production of a double-stranded DNA template by Klenow fill-in.
This dsDNA template along with the vector pNFκB-Luc were then cut with both Mlu I and Bgl II restriction enzymes to allow cloning of the insert into this vector. ligation of the insert and vector occurred, followed by heat-shock transformation into a E. coli strain (JM109) followed by selection of recombinants on LB agar+Ampicillin (100 μg/ml). Mini liquid cultures of each colony generated were established and mini-plasmid preparations done (Qiagen protocols followed), furthered by restriction digests to check the size of the recombinant insert.
The pRSV/hRXRα was prepared via the method of Collingwood T N et al. 1997. J Biol Chem. 272: 13060-5. Transformation was performed as described above, and bulk plasmid preparations were performed from 100 ml overnight cultures. The selectable antibiotic for this vector was 100 μg/ml Ampicilin.
Transfection of cells was performed using Lipofectamine (Gibco Brl) as directed by the manufactures. Transfected cells were incubated for 5 h at 37° C./5% CO2 and serum then added to a final concentration of 2%. Cells were then incubated for a further 24 hours in the presence or absence of ligand. After 24 hours cell lysates were prepared and the level of firefly and renilla luciferase determined using the Dual luciferase assay system (Promega) and a MLX microtitre plate luminometer (Dynex).
Cells were washed with transfection media (DMEM) then transiently transfected with 4 plasmids: a LXR-responsive firefly luciferase reporter gene (pLXRE-luc); mammalian expression plasmids (pcDNA3.1/LXR, and pRSV/hRXRα) containing human LXR and RXRα cDNAs respectively and a control plasmid (pRLTK, Promega) which constitutatively expresses the renilla luciferase gene.
Transfected cells were incubated for 5 h at 37°C./5% CO2 and serum then added to a final concentration of 2%. Cells were then incubated for further 24 hours in the presence or absence of ligand. After 24 hours cell lysates were prepared and the level of firefly and renilla luciferase determined using the Dual luciferase assay system (Promega) and a MLX microtitre plate luminometer (Dynex). The level of firefly luciferase (normalised against the renilla luciferase control) provides a measure of reporter gene activity. This in turn reflects the level of LXR activation
The level of firefly luciferase (normalised against the renilla luciferase control) provides a measure of reporter gene activity which in turn reflects the level of LXRα activation.

A further test has as its system filaggrin. Kind of test: RNA expression analysis of filaggrin in human epidermal cultures (Integriderm array). Type of test: cell-based. The procedure: Commercially available human epidermal cultures were obtained from Skin Ethic™. The cultures were incubated in DMEM supplemented with guggul sterone (conctri) or vehicle alone (X % ethanol) for X days. Medium was replaced every day.
RNA was then extracted from cultures using the Qaigen RNEasy™ minikit according to manufacturers' instructions. The RNA was than DNAse treated and quantified by measuring OD at 260 & 280 nm with a spectrophotometer.
The level of gene expression was then determined using the Integridenm array from Research Genetics. RNA expression in guggul sterone treated cultures was compared to that in cultures treated with vehicle alone according to manufacturers' instructions broadly detailed below.
To prehybridise, each membrane was placed in a seperate roller bottle with the DNA spotted side facing inwards 5.0 ml MicroHyb (Research Genetics #HYB125.GF) was added to each bottle as well as the blocking agents;
20 ul mastermix was added to each tube containing RNA and oligo dT, and the reaction incubated at […] 42° C. for 90 mins. Bio-Spin 6 columns (Bio-Rad #732-6002) were then used to remove unincorporated nucleotides according to the manufacturer's instructions.
The cDNA was denatured by heating to 99° C. for 3 mins and chilled on ice for 2 mins. Hybridisation was carried out at 42° C. for 16-20 hrs in a rotating oven.
Membranes were washed 4× with ˜30 ml wash 1 solution (2× SSC, 1% SDS) at 50° C. for 20 mins/wash in rotating oven. This was followed by 2 further washes in ˜30 ml wash 2 solution (0.5× SSC, 1% SDS) at 50° C. for 15 mins/wash in a rotating oven.
Images of the membranes were obtained using a phosphorimager (Molecular Dynamics) using a pixel size of 100 u during the scanning. Images were converted to “TIF” files to allow analysis using Pathways™2.01 software (Research Genetics) and spot intensities compared to indicate changes in RNA expression. Each array contains 3 separate spots of filaggrin DNA and the average of all 3 spot intensities was calculated for each array. […]

Each structure is given as a SMILES string.

For `CC(C)CC[C@@H](O)[C@@H](C)[C@H]1CC[C@H]2[C@@H]3CC=C4C[C@@H](O)CC[C@]4(C)[C@H]3CC[C@]12C` [22R-hydroxycholesterol, reference compound], the “Reporter Gene Activity Foloinduction relative to vertical Mean” value on human LXR (32 μM, positive control in desmosterol experiment) worked out at 4.8; at human LXR (35 μM, positive control in cis-guggal sterone experiment), 6; on human LXR (50 μM, positive control in cis-guggal sterone experiment) it was 6.59.
Take `C/C=C1\C(=O)C[C@H]2[C@@H]3CCC4=CC(=O)CC[C@]4(C)[C@H]3CC[C@]12C` [Cis-guggal Sterone]: the “Reporter Gene Activity Foloinduction relative to vertical Mean” value at human LXR (16 μM, cos-7 cells, 24 hours with ligand, firefly luciferase normalised against renilla) was determined as 3.9; at human LXR (32 μM, cos-7 cells, 24 hours with ligand, firefly luciferase normalised against renilla), 8; at human LXR (64 μM, cos-7 cells, 24 hours with ligand, firefly luciferase normalised against renilla), 17.3. Moreover, the “Spot intensity (filaggrin)” value in the test with filaggrin (human epidermal cultures, average of 3 filaggrin spots, normalised against average intensity of all spots) was 2885. Besides, the “Changes in the expression relative to vehicle (filaggrin)” value in the test on filaggrin (human epidermal cultures, relative to vehicle) was 1.54 (+/−0.17). Further, the “filaggrin mRNA levels (in words)” value in the test on filaggrin (treatment of epidermal cultures) is given as “elevation of filaggrin mRNA levels”.
Turning to `CC(C)=CCC[C@@H](C)[C@H]1CC[C@H]2[C@@H]3CC=C4C[C@@H](O)CC[C@]4(C)[C@H]3CC[C@]12C` [Desmosterol, cholesta-5,24-dien-3β-ol], on human LXR (26 μM, cos-7 cells, 24 hours with ligand, firefly luciferase normalised against renilla), the “Reporter Gene Activity Foloinduction relative to vertical Mean” value worked out at 9.27.
